Measurements: US8877786B2, “Substituted carbamoylmethylamino acetic acid derivatives as novel NEP inhibitors” (Novartis AG, priority 2009, dated 2014)

target: recombinant human neutral endopeptidase (NEP, EC 3.4.24.11) (Homo sapiens (Human), UniProt P08473); assay: in vitro inhibition of recombinant human neutral endopeptidase (fluorescence lifetime assay); format: biochemical; settings: recombinant human NEP 7 pM, 1 hour pre-incubation at room temperature, pH 7.4, substrate Cys(PT14)-Arg-Arg-Leu-Trp-OH 0.7 μM, FLT read after 1 hour
From the text: The activity of a compound according to the present invention can be assessed by the following in vitro & in vivo methods and/or by the following in vitro & in vivo methods well-described in the art. See A fluorescence lifetime-based assay for protease inhibitor profiling on human kallikrein 7 Doering K, Meder G, Hinnenberger M, Woelcke J, Mayr L M, Hassiepen U Biomol Screen.

Sequence of recombinant human neutral endopeptidase (NEP, EC 3.4.24.11) (P08473 whole entry): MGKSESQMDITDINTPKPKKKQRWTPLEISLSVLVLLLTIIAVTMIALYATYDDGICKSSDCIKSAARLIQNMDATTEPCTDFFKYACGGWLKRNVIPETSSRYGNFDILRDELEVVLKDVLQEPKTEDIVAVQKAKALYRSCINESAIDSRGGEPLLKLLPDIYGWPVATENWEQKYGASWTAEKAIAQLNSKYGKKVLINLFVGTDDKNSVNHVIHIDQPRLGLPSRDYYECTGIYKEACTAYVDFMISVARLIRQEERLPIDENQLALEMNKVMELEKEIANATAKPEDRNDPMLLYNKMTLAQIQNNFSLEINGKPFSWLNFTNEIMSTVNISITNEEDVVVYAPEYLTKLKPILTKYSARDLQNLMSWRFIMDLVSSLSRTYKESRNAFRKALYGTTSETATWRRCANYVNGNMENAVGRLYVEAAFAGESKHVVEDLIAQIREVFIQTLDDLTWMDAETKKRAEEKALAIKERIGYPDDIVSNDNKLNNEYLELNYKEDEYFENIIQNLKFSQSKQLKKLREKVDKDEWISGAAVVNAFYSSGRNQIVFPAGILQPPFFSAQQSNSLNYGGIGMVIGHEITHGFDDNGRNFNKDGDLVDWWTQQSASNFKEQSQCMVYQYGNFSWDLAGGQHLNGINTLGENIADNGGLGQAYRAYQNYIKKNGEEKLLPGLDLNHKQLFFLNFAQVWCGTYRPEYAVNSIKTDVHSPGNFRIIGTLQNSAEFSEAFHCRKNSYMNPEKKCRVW

Row | Compound | IC50
1 | C[C@H](N[C@@H](Cc1ccc(-c2cccc(Cl)c2)cc1)C(=O)Nc1nnn[nH]1)C(=O)O [Example 3-1, (S)-2-[(S)-2-(3′-chloro-biphenyl-4-yl)-1-(1H-tetrazol-5-ylcarbamoyl)-ethylamino]-propionic acid] | 0.09 nM
2 | C[C@H](N[C@@H](Cc1ccc(-c2cc(Cl)ccc2Cl)cc1)C(=O)Nc1nnn[nH]1)C(=O)O [Example 3-2, (S)-2-[(S)-2-(2′,5′-dichloro-biphenyl-4-yl)-1-(1H-tetrazol-5-ylcarbamoyl)-ethylamino]-propionic acid] | 0.3 nM
3 | C[C@H](N[C@@H](Cc1ccc(-c2ccccc2)cc1)C(=O)Nc1nnn[nH]1)C(=O)O [Example 3-4, (S)-2-[(S)-2-Biphenyl-4-yl-1-(1H-tetrazol-5-ylcarbamoyl)-ethylamino]-propionic acid] | 11 nM
4 | C[C@H](N[C@@H](Cc1ccc(-c2cccc(Cl)c2)cc1)C(=O)Nc1cc(O)no1)C(=O)O [Example 3-7, (S)-2-[(S)-2-(3′-Chloro-biphenyl-4-yl)-1-(3-hydroxy-isoxazol-5-ylcarbamoyl)-ethylamino]-propionic acid] | 2.4 nM
5 | O=C(O)[C@H](CCc1ccccc1)N[C@@H](Cc1ccc(-c2cccc(Cl)c2)cc1)C(=O)Nc1nnn[nH]1 [Example 3-12, (S)-2-[(S)-2-(3′-Chloro-biphenyl-4-yl)-1-(1H-tetrazol-5-ylcarbamoyl)-ethylamino]-4-phenyl-butyric acid] | 0.2 nM
